Source: PubChem BioAssay AID1963875 (Molecular Pharmacology Branch, DTP, NCI, 2024)

Tested on: KRAS-mutant PDC complex spheroid viability
Assay: Anticancer human tumor 186277-243-T-J2-PDC patient-derived colon adenocarcinoma cell line growth inhibition [KRAS2]
Conditions: for IC50: curve of first compound; for viability, T/C: stronger effect = lower value
How it was run: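 Combination screen of spheroid viability in tumor-cell co-cultures with endothelial (HUVEC) and mesenchymal stem cell stroma. Each agent was tested in half-log dilutions, topping at clinical Cmax or at 10 microM without a known Cmax.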

[1] = second compound 0.1 µM, first compound 0.000316 µM
[2] = second compound 0.1 µM, first compound 0.001 µM
[3] = second compound 0.1 µM, first compound 0.00316 µM
[4] = second compound 0.1 µM, first compound 0.01 µM
[5] = second compound 0.1 µM, first compound 0.0316 µM
[6] = second compound 0.316 µM, first compound 0.000316 µM
[7] = second compound 0.316 µM, first compound 0.001 µM
[8] = second compound 0.316 µM, first compound 0.00316 µM
[9] = second compound 0.316 µM, first compound 0.01 µM
[10] = second compound 0.316 µM, first compound 0.0316 µM
[11] = second compound 1 µM, first compound 0.000316 µM
[12] = second compound 1 µM, first compound 0.001 µM
[13] = second compound 1 µM, first compound 0.00316 µM
[14] = second compound 1 µM, first compound 0.01 µM
[15] = second compound 1 µM, first compound 0.0316 µM
[16] = second compound 3.16 µM, first compound 0.000316 µM
[17] = second compound 3.16 µM, first compound 0.001 µM
[18] = second compound 3.16 µM, first compound 0.00316 µM
[19] = second compound 3.16 µM, first compound 0.01 µM
[20] = second compound 3.16 µM, first compound 0.0316 µM
[21] = second compound 10 µM, first compound 0.000316 µM
[22] = second compound 10 µM, first compound 0.001 µM
[23] = second compound 10 µM, first compound 0.00316 µM
[24] = second compound 10 µM, first compound 0.01 µM
[25] = second compound 10 µM, first compound 0.0316 µM
[26] = second compound 0.1 µM, first compound 0.1 µM
[27] = second compound 0.316 µM, first compound 0.1 µM
[28] = second compound 1 µM, first compound 0.1 µM
[29] = second compound 3.16 µM, first compound 0.1 µM
[30] = second compound 10 µM, first compound 0.1 µM
[31] = second compound 0.1 µM, first compound 0.316 µM
[32] = second compound 0.1 µM, first compound 1 µM
[33] = second compound 0.1 µM, first compound 3.16 µM
[34] = second compound 0.1 µM, first compound 10 µM
[35] = second compound 0.316 µM, first compound 0.316 µM
[36] = second compound 0.316 µM, first compound 1 µM
[37] = second compound 0.316 µM, first compound 3.16 µM
[38] = second compound 0.316 µM, first compound 10 µM
[39] = second compound 1 µM, first compound 0.316 µM
[40] = second compound 1 µM, first compound 1 µM
[41] = second compound 1 µM, first compound 3.16 µM
[42] = second compound 1 µM, first compound 10 µM
[43] = second compound 3.16 µM, first compound 0.316 µM
[44] = second compound 3.16 µM, first compound 1 µM
[45] = second compound 3.16 µM, first compound 3.16 µM
[46] = second compound 3.16 µM, first compound 10 µM
[47] = second compound 10 µM, first compound 0.316 µM
[48] = second compound 10 µM, first compound 1 µM
[49] = second compound 10 µM, first compound 3.16 µM
[50] = second compound 10 µM, first compound 10 µM
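Throughout, for viability, T/C: viability read after seven days of compound exposure; 100% = DMSO vehicle-treated spheroids so lower means less viable.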

CC(=O)Nc1cccc(-n2c(=O)n(C3CC3)c(=O)c3c(Nc4ccc(I)cc4F)n(C)c(=O)c(C)c32)c1 + CC1OCC2(CCN(c3cnc(Sc4ccnc(N)c4Cl)c(N)n3)CC2)C1N
IC50 (second compound 0.1 µM): 0.368 nM
IC50 (second compound 0.316 µM): 0.199 nM
IC50 (second compound 1 µM): 0.128 nM
IC50 (second compound 3.16 µM): < 0.1 nM
IC50 (second compound 10 µM): < 0.1 nM
viability, T/C (second compound 0.1 µM, first compound 0.0001 µM): 116%
viability, T/C [1]: 56.1%
viability, T/C [2]: 9.68%
viability, T/C [3]: 5%
viability, T/C [4]: 1.6%
viability, T/C [5]: 1.06%
viability, T/C (second compound 0.316 µM, first compound 0.0001 µM): 86.3%
viability, T/C [6]: 25.9%
viability, T/C [7]: 5.13%
viability, T/C [8]: 3.78%
viability, T/C [9]: 3.34%
viability, T/C [10]: 0.76%
viability, T/C (second compound 1 µM, first compound 0.0001 µM): 60.8%
viability, T/C [11]: 10.9%
viability, T/C [12]: 4.8%
viability, T/C [13]: 1.82%
viability, T/C [14]: 0.88%
viability, T/C [15]: 0.76%
viability, T/C (second compound 3.16 µM, first compound 0.0001 µM): 24.4%
viability, T/C [16]: 5.11%
viability, T/C [17]: 2.57%
viability, T/C [18]: 1.18%
viability, T/C [19]: 0.59%
viability, T/C [20]: 0.6%
viability, T/C (second compound 10 µM, first compound 0.0001 µM): 10%
viability, T/C [21]: 3.24%
viability, T/C [22]: 1.99%
viability, T/C [23]: 0.72%
viability, T/C [24]: 0.68%
viability, T/C [25]: 0.55%

CN(C)C/C=C/C(=O)Nc1cc2c(Nc3ccc(F)c(Cl)c3)ncnc2cc1O[C@H]1CCOC1 + CC1OCC2(CCN(c3cnc(Sc4ccnc(N)c4Cl)c(N)n3)CC2)C1N
IC50 (second compound 0.1 µM): > 100 nM
IC50 (second compound 0.316 µM): > 100 nM
IC50 (second compound 1 µM): > 100 nM
IC50 (second compound 3.16 µM): 28.9 nM
IC50 (second compound 10 µM): 27.8 nM
viability, T/C [1]: 92.7%
viability, T/C [2]: 104%
viability, T/C [3]: 104%
viability, T/C [4]: 126%
viability, T/C [5]: 100%
viability, T/C [26]: 108%
viability, T/C [6]: 103%
viability, T/C [7]: 101%
viability, T/C [8]: 112%
viability, T/C [9]: 104%
viability, T/C [10]: 84.5%
viability, T/C [27]: 81.4%
viability, T/C [11]: 92.5%
viability, T/C [12]: 90.5%
viability, T/C [13]: 93.5%
viability, T/C [14]: 99.8%
viability, T/C [15]: 99.8%
viability, T/C [28]: 99.5%
viability, T/C [16]: 97.8%
viability, T/C [17]: 81.3%
viability, T/C [18]: 87.7%
viability, T/C [19]: 62.6%
viability, T/C [20]: 49.4%
viability, T/C [29]: 34.6%
viability, T/C [21]: 92.9%
viability, T/C [22]: 92%
viability, T/C [23]: 79.6%
viability, T/C [24]: 103%
viability, T/C [25]: 44.6%
viability, T/C [30]: 38.4%

COC(=O)c1ccc2c(C(=Nc3ccc(N(C)C(=O)CN4CCN(C)CC4)cc3)c3ccccc3)c(O)[nH]c2c1 + CC1OCC2(CCN(c3cnc(Sc4ccnc(N)c4Cl)c(N)n3)CC2)C1N
IC50 (second compound 0.1 µM): 2140 nM
IC50 (second compound 0.316 µM): 1850 nM
IC50 (second compound 1 µM): 1510 nM
IC50 (second compound 3.16 µM): 692 nM
IC50 (second compound 10 µM): 368 nM
viability, T/C [5]: 105%
viability, T/C [26]: 108%
viability, T/C [31]: 116%
viability, T/C [32]: 120%
viability, T/C [33]: 18%
viability, T/C [34]: 12.9%
viability, T/C [10]: 108%
viability, T/C [27]: 105%
viability, T/C [35]: 113%
viability, T/C [36]: 98.9%
viability, T/C [37]: 4.62%
viability, T/C [38]: 10.2%
viability, T/C [15]: 116%
viability, T/C [28]: 108%
viability, T/C [39]: 100%
viability, T/C [40]: 74.8%
viability, T/C [41]: 4.4%
viability, T/C [42]: 4.44%
viability, T/C [20]: 103%
viability, T/C [29]: 93.2%
viability, T/C [43]: 94%
viability, T/C [44]: 29.4%
viability, T/C [45]: 1.17%
viability, T/C [46]: 1.68%
viability, T/C [25]: 83%
viability, T/C [30]: 82%
viability, T/C [47]: 54.5%
viability, T/C [48]: 15.6%
viability, T/C [49]: 0.48%
viability, T/C [50]: 0.71%

O=C(c1cc(Cc2n[nH]c(=O)c3ccccc23)ccc1F)N1CCN(C(=O)C2CC2)CC1 + CC1OCC2(CCN(c3cnc(Sc4ccnc(N)c4Cl)c(N)n3)CC2)C1N
IC50 (second compound 0.1 µM): 6480 nM
IC50 (second compound 0.316 µM): 6080 nM
IC50 (second compound 1 µM): 3950 nM
IC50 (second compound 3.16 µM): 1900 nM
IC50 (second compound 10 µM): 614 nM
viability, T/C [5]: 118%
viability, T/C [26]: 112%
viability, T/C [31]: 114%
viability, T/C [32]: 109%
viability, T/C [33]: 81%
viability, T/C [34]: 31.3%
viability, T/C [10]: 129%
viability, T/C [27]: 124%
viability, T/C [35]: 106%
viability, T/C [36]: 115%
viability, T/C [37]: 75%
viability, T/C [38]: 28.8%
viability, T/C [15]: 122%
viability, T/C [28]: 113%
viability, T/C [39]: 126%
viability, T/C [40]: 103%
viability, T/C [41]: 56.8%
viability, T/C [42]: 23.8%
viability, T/C [20]: 92.2%
viability, T/C [29]: 94.9%
viability, T/C [43]: 87.4%
viability, T/C [44]: 70.3%
viability, T/C [45]: 33.9%
viability, T/C [46]: 16.3%
viability, T/C [25]: 86.7%
viability, T/C [30]: 66%
viability, T/C [47]: 62.9%
viability, T/C [48]: 45.8%
viability, T/C [49]: 24.9%
viability, T/C [50]: 14.1%
